The target of assay [1] is T1, c-Met (cytoplasmic domain) (Homo sapiens, UniProt P08581).
T1 construct: 10 ng/mL c-Met (cytoplasmic domain, Invitrogen Corporation #PV3143); purchased Invitrogen Corporation PV3143
The assay is described as follows: c-Met Kinase Assay (same methods as for ALK, with modifications). As to conditions: c-Met kinase inhibition, 1 μM ATP (Km level); read-out: cMet Activity. The class given is biochemical. The gist of the method: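 Europium-labeled PT66 antibody (Eu-N1) detects substrate phosphorylation on wells coated with phospholipase C-γ at 10 μg/mL. The kinase, the cytoplasmic domain of c-Met at 10 ng/mL, starts the reaction, which proceeds 15 minutes at 37° C.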

Assay [2] deals with T2, baculovirus-expressed ALK (Homo sapiens, UniProt Q9UM73).
T2 construct: host or cells: baculovirus expression system
T2 sequence (Q9UM73 19-1620): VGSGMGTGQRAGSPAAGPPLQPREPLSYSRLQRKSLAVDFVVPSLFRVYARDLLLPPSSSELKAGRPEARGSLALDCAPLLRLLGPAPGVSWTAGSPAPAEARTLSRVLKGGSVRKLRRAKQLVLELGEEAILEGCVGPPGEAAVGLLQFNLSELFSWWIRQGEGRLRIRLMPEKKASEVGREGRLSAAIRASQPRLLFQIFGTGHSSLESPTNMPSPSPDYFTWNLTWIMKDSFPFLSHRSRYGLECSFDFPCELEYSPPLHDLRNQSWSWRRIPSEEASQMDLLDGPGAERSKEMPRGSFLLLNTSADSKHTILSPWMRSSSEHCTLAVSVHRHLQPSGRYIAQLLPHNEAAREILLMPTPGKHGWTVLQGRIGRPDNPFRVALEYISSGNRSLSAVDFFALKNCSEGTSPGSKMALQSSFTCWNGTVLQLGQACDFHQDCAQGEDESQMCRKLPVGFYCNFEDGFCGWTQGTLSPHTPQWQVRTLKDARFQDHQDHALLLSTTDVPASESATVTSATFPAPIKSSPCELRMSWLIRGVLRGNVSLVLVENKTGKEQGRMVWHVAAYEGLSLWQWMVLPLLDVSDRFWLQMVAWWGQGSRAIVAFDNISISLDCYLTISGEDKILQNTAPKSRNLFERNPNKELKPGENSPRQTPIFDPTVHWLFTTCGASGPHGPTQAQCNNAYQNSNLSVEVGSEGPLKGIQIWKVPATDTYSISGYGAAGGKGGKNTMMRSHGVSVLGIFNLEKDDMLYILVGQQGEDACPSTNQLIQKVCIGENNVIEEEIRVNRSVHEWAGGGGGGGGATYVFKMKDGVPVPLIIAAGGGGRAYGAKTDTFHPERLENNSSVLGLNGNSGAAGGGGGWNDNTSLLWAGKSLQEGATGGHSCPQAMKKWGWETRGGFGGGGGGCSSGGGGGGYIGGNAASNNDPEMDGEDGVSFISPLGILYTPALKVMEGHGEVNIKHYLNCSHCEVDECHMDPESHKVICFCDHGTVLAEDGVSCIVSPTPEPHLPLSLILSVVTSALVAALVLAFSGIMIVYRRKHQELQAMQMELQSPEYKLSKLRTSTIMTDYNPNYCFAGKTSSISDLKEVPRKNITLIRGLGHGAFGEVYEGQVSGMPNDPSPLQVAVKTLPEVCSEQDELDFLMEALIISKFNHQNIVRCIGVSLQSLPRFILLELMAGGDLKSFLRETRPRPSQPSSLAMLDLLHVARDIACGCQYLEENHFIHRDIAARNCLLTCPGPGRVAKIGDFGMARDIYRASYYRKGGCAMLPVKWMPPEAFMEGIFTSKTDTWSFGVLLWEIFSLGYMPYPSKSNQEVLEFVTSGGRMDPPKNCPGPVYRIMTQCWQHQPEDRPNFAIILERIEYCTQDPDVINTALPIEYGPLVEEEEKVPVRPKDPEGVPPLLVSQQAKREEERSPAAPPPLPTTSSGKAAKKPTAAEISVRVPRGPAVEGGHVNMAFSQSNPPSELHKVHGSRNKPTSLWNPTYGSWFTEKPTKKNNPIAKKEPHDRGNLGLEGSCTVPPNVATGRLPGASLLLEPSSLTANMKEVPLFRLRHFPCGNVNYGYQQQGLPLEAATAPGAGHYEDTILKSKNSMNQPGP
The assay is described as follows: ALK Kinase Assay (ELISA-type, time-resolved fluorescence). The class given is biochemical. The settings on record: ALK kinase inhibition, 1 μM ATP (Km level); read-out: ALK Activity. The gist of the method:
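Plates coated with phospholipase C-γ substrate (10 μg/mL in TBS); reaction started with 30 ng/ml ALK and run 15 min at 37° C. Phosphorylated substrate detected with Eu-N1-labeled PT66 antibody. IC50 from sigmoidal variable-slope fit of percent inhibition vs log concentration.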
A general note: An ELISA detects its analyte on a solid surface through an enzyme-linked reagent.

T1 sequence (P08581 956-1390 limits assumed): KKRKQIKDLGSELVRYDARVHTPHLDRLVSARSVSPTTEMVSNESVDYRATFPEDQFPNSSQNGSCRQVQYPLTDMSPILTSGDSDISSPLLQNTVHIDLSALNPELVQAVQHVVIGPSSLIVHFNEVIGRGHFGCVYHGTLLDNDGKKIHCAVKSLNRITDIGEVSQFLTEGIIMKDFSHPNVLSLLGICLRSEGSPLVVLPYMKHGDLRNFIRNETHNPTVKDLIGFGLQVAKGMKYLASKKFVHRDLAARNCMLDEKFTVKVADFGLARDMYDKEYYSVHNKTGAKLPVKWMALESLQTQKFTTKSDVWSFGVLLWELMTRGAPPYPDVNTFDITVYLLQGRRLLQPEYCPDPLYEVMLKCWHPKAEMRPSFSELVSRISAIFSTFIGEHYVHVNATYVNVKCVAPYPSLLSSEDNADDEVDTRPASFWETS

For `COCCN1CCc2cc(Nc3ncc(Cl)c(N[C@@H]4CCCC[C@H]4NS(C)(=O)=O)n3)c(OC)cc2CC1` [Example 111, N-((1R,2R)-2-{5-Chloro-2-[8-methoxy-3-(2-methoxy-ethyl)-2,3,4,5-tetrahydro-1H-benzo[d]azepin-7-ylamino]-pyrimidin-4-ylamino}-cyclohexyl)-methanesulfonamide], the values for the IC50 in assay [1] and in assay [2] were greater than 10 µM and less than 0.1 µM, respectively.

With `COCCN1CCc2cc(Nc3ncc(Cl)c(NC4C5C=CC(C5)C4C(N)=O)n3)c(OC)cc2CC1` (stereo not drawn) [Example 112, (2-exo,3-exo)-3-{5-Chloro-2-[8-methoxy-3-(2-methoxy-ethyl)-2,3,4,5-tetrahydro-1H-benzo[d]azepin-7-ylamino]-pyrimidin-4-ylamino}-bicyclo[2.2.1]hept-5-ene-2-carboxylic acid amide], the IC50 was greater than 10 µM in assay [1] and less than 0.1 µM in assay [2].

Regarding `CNC(=O)c1ccccc1Nc1nc(Nc2c(OC)ccc3c2C(=O)N(C)CCC3)ncc1Cl` [Example 114, 2-[5-Chloro-2-(8-methoxy-2-methyl-1-oxo-2,3,4,5-tetrahydro-1H-benzo[c]azepin-9-ylamino)-pyrimidin-4-ylamino]-N-methyl-benzamide], the IC50 in assay [1] and in assay [2] was greater than 10 µM each time.

As to `COc1c(Nc2ncc(Cl)c(NC3C4C=CC(C4)C3C(N)=O)n2)ccc2c1CCCC(=O)N2C` (stereo not drawn) [Example 115, (2-exo, 3-exo)-3-[5-Chloro-2-(6-methoxy-1-methyl-2-oxo-2,3,4,5-tetrahydro-1H-benzo[b]azepin-7-ylamino)-pyrimidin-4-ylamino]-bicyclo[2.2.1]hept-5-ene-2-carboxylic acid amide], the IC50 in assay [1] was greater than 10 µM; in assay [2] it was less than 0.1 µM.

For the compound `CNC(=O)c1ccccc1Nc1nc(Nc2ccc3c(c2OC)CCCC(=O)N3C)ncc1Cl` [Example 116, 2-[5-Chloro-2-(6-methoxy-1-methyl-2-oxo-2,3,4,5-tetrahydro-1H-benzo[b]azepin-7-ylamino)-pyrimidin-4-ylamino]-N-methyl-benzamide], the values for the IC50 in assay [1] and in assay [2] were 1 to 10 µM and less than 0.1 µM, respectively.

Turning to `COc1cc(N2CCOCC2)ccc1Nc1nc(Nc2ccc3c(c2OC)CCCC(=O)N3C)ncc1Cl` [Example 117, 7-[5-Chloro-4-(2-methoxy-4-morpholin-4-yl-phenylamino)-pyrimidin-2-ylamino]-6-methoxy-1-methyl-1,3,4,5-tetrahydro-benzo[b]azepin-2-one], the IC50 is greater than 10 µM in assay [1] and less than 0.1 µM in assay [2].

Regarding `COc1c(Nc2ncc(Cl)c(N[C@@H]3CCCC[C@H]3NS(C)(=O)=O)n2)ccc2c1CCCC(=O)N2C` [Example 118, N-{(1R,2R)-2-[5-Chloro-2-(6-methoxy-1-methyl-2-oxo-2,3,4,5-tetrahydro-1H-benzo[b]azepin-7-ylamino)-pyrimidin-4-ylamino]-cyclohexyl}-methanesulfonamide], the IC50 in assay [1] is greater than 10 µM; in assay [2], less than 0.1 µM.

`CCN1C(=O)CCCc2c1ccc(Nc1ncc(Cl)c(N[C@@H]3CCCC[C@H]3NS(C)(=O)=O)n1)c2OC` [Example 120, N-{(1R,2R)-2-[5-Chloro-2-(1-ethyl-6-methoxy-2-oxo-2,3,4,5-tetrahydro-1H-benzo[b]azepin-7-ylamino)-pyrimidin-4-ylamino]-cyclohexyl}-methanesulfonamide]: the IC50 was greater than 10 µM in assay [1] and less than 0.1 µM in assay [2].

`CCN1C(=O)CCCc2c1ccc(Nc1ncc(Cl)c(NC3C4C=CC(C4)C3C(N)=O)n1)c2OC` (stereo not drawn) [Example 121, (2-exo,3-exo)-3-[5-Chloro-2-(1-ethyl-6-methoxy-2-oxo-2,3,4,5-tetrahydro-1H-benzo[b]azepin-7-ylamino)-pyrimidin-4-ylamino]-bicyclo[2.2.1]hept-5-ene-2-carboxylic acid amide]: the IC50 is greater than 10 µM in assay [1] and less than 0.1 µM in assay [2].

Source of the values: patent publication US8148391B2 (Cephalon, Inc., priority 2006, dated 2012).
